Our source for the IC50 values is US20250059220A1, “SUBSTITUTED BENZOTHIOPHENE DERIVATIVES AND METHODS OF USE THEREOF” (Merck Sharp & Dohme LLC, priority 2021, published 2025).

The target in test [1] is human PTPN1 (1-435) (Homo sapiens (Human), UniProt P18031). Kind of test: Human PTPN1 Biochemical Assay. The following applies: DiFMUP substrate, read-out: PTP1B IC50. In a few lines:
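Read-out is DiFMUP hydrolysis fluorescence (360 nm excitation, 460 nm emission) after 1 h at room temperature, following 30 min enzyme–compound preincubation.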

For test [2], the target named is human PTPN2 (1-387) (Homo sapiens (Human), UniProt P17706). Kind of test: Human PTPN2 Biochemical Assay. The note with it: DiFMUP substrate. In a few lines: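 Fluorogenic DiFMUP hydrolysis (1 h, room temperature, read ex 360/em 460 nm) after 30 min compound preincubation with PTPN2 residues 1-387, in 50 mM Tris pH 7.4, 150 mM NaCl, 0.01% Tween20, 0.5 mM DTT. Effects scaled between buffer and enzyme controls, 4-parameter fit gives EC50.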
human PTPN2 (1-387), sequence (P17706 other isoform, or with tags, fused parts or gaps): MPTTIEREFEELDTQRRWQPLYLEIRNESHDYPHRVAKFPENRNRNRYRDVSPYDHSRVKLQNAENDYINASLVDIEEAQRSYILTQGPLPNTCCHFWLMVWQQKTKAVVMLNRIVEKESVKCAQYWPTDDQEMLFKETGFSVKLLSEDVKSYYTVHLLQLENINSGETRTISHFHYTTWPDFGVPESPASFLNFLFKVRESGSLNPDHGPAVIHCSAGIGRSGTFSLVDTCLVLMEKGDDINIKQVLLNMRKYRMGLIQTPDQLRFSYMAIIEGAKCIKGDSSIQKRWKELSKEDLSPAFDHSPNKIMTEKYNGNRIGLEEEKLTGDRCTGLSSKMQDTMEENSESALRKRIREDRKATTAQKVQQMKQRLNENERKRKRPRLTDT

human PTPN1 (1-435), sequence (P18031 whole entry): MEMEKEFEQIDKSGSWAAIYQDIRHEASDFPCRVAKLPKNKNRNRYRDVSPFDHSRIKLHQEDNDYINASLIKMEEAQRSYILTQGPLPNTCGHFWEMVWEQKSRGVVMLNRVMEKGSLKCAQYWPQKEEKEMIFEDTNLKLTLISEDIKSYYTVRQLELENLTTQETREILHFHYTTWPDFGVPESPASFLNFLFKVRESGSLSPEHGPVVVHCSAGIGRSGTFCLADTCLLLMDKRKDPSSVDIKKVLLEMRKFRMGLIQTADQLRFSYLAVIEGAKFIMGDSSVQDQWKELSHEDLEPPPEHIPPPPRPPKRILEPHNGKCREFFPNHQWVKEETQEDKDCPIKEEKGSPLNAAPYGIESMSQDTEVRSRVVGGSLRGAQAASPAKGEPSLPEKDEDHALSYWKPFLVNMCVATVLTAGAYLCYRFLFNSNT

For `O=C(Nc1cccc(-n2nccn2)c1)c1ccc2sc(C(F)(F)P(=O)(O)O)c(Br)c2c1` [Compound 109], the concentration for half-maximal inhibition (IC50) – broadly, the concentration at which inhibition is half-maximal – in test [1] was found to be 0.465 µM; in test [2], 0.78 µM.

In the case of `NC(=O)c1cc(OCc2ccc(OC(F)(F)F)cc2)c2sc(C(F)(F)P(=O)(O)O)c(Br)c2c1` [Compound 339], the figures for the IC50 in test [1] and in test [2] were 0.0453 µM and 0.0244 µM, respectively.

With `CC(NC(=O)c1ccc2sc(C(F)(F)P(=O)(O)O)c(Br)c2c1)c1cccnc1` (stereo not drawn) [Compound 35], the IC50 came out at 6.44 µM in test [1] and 7.16 µM in test [2].

Regarding `O=C(NCc1cnn2ccccc12)c1ccc2sc(C(F)(F)P(=O)(O)O)c(Br)c2c1` [Compound 22], the concentration for half-maximal inhibition (IC50) in test [1] is 1.99 µM; in test [2], 2.59 µM.

Turning to `CCc1nc(CNC(=O)c2ccc3sc(C(F)(F)P(=O)(O)O)c(Br)c3c2)no1` [Compound 195], the figures for the IC50 in test [1] and in test [2] were 2.74 µM and 5.54 µM, respectively.

On to `N#CCc1cc(OCCCC(F)(F)F)c2sc(C(F)(F)P(=O)(O)O)c(Br)c2c1` [Compound 448, ((3-bromo-5-(cyanomethyl)-7-(4,4,4-trifluorobutoxy)benzo[b]thiophen-2-yl)difluoromethyl)phosphonic acid], for which the IC50 in test [1] was 0.23 µM; in test [2], 0.316 µM.

For `O=C(NCCn1cnnc1)c1ccc2sc(C(F)(F)P(=O)(O)O)c(Br)c2c1` [Compound 143], the results for the IC50 in test [1] and in test [2] were 4.34 µM and 6.14 µM, respectively.

As to `NC(=O)c1cc(OCC2C3CC4C(C3)C24)c2sc(C(F)(F)P(=O)(O)O)c(Br)c2c1` (stereo not drawn) [Compound 287], the IC50 in test [1] came out at 0.016 µM; in test [2], 0.0453 µM.

On to `Cn1cnc(CNC(=O)c2ccc3sc(C(F)(F)P(=O)(O)O)c(Br)c3c2)n1` [Compound 181], for which the values for the IC50 in test [1] and in test [2] were 2.42 µM and 4.1 µM, respectively.

Regarding `O=P(O)(O)C(F)(F)c1sc2c(OCC3CC3(F)F)cc(-c3nc[nH]n3)cc2c1Br` (stereo not drawn) [Compound 441], the IC50 in test [1] and in test [2] was 0.0025 µM in each case.

For `CS(=O)(=O)CCCOc1cc(C(N)=O)cc2c(Cl)c(C(F)(F)P(=O)(O)O)sc12` [Compound 333], the half-inhibitory concentration (IC50) in test [1] is 0.037 µM; in test [2] it was 0.0421 µM.

For the compound `C[C@@H]1C[C@@]1(F)COc1cc(C(N)=O)cc2c(Br)c(C(F)(F)P(=O)(O)O)sc12` [Compound 277], the IC50 was 0.069 µM in test [1] and 0.108 µM in test [2].

Consider `O=C(Nc1ncc(C2CCC2)o1)c1ccc2sc(C(F)(F)P(=O)(O)O)c(Br)c2c1` [Compound 19], for which the figures for the half-maximal inhibitory concentration (IC50) in test [1] and in test [2] were 1.5 µM and 2.35 µM, respectively.

For `O=C(NCc1ccon1)c1ccc2sc(C(F)(F)P(=O)(O)O)c(Br)c2c1` [Compound 179], the IC50 in test [1] amounted to 2.84 µM; in test [2], 2.57 µM.

For `CNC(=O)c1cc(OCCCCS(C)(=O)=O)c2sc(C(F)(F)P(=O)(O)O)c(Br)c2c1` [Compound 324], the IC50 is 0.041 µM in test [1] and 0.0299 µM in test [2].

Take `N#CCCCNC(=O)c1ccc2sc(C(F)(F)P(=O)(O)O)c(Br)c2c1` [Compound 34]: the concentration for half-maximal inhibition (IC50) was 4.48 µM in test [1] and 5.86 µM in test [2].

Take `NC(=O)c1cc(OCc2ccc(OC(F)F)cc2)c2sc(C(F)(F)P(=O)(O)O)c(Br)c2c1` [Compound 360]: the half-maximal inhibitory concentration (IC50) in test [1] worked out at 0.0252 µM; in test [2] it was 0.0129 µM.

Take `N#Cc1cc(Cl)ccc1COc1cc(C(N)=O)cc2c(Br)c(C(F)(F)P(=O)(O)O)sc12` [Compound 341]: the IC50 was determined as 0.0943 µM in test [1] and 0.0467 µM in test [2].

As to `N#CCCNC(=O)c1ccc2sc(C(F)(F)P(=O)(O)O)c(Br)c2c1` [Compound 12], the half-inhibitory concentration (IC50) is 5.25 µM in test [1] and 8.89 µM in test [2].

On to `CCNC(=O)c1cc(OCCCS(C)(=O)=O)c2sc(C(F)(F)P(=O)(O)O)c(Br)c2c1` [Compound 305], for which the half-inhibitory concentration (IC50) in test [1] is 0.0086 µM; in test [2], 0.0076 µM.

On to `COCCOc1cc(C)ccc1NC(=O)c1ccc2sc(C(F)(F)P(=O)(O)O)c(Br)c2c1` [Compound 107], for which the 50% inhibitory concentration (IC50) in test [1] stood at 3.86 µM; in test [2] it was 4.03 µM.

`NC(=O)c1cc(OCCCCC(F)(F)F)c2sc(C(F)(F)P(=O)(O)O)c(Br)c2c1` [Compound 274]: the IC50 in test [1] was found to be 0.043 µM; in test [2], 0.0649 µM.

Take `O=C(NCc1ccccc1N1CCOCC1)c1ccc2sc(C(F)(F)P(=O)(O)O)c(Br)c2c1` [Compound 90]: the values for the IC50 in test [1] and in test [2] were 4.21 µM and 5.8 µM, respectively.

On to `CCCC(C)Oc1cc(C(N)=O)cc2c(Br)c(C(F)(F)P(=O)(O)O)sc12` (stereo not drawn) [Compound 370], for which the results for the IC50 in test [1] and in test [2] were 0.133 µM and 0.14 µM, respectively.

`N#CCCCCCCOc1cc(C(N)=O)cc2c(Br)c(C(F)(F)P(=O)(O)O)sc12` [Compound 243]: the 50% inhibitory concentration (IC50) in test [1] was found to be 0.0684 µM; in test [2], 0.0479 µM.

In the case of `O=C(N[C@H]1CC[C@@H](C(F)(F)F)CC1)c1ccc2sc(C(F)(F)P(=O)(O)O)c(Br)c2c1` [Compound 54], the IC50 in test [1] was found to be 5.03 µM; in test [2], 6.75 µM.

As to `O=C(N[C@@H]1CCC[C@H]1OCc1ccccc1)c1ccc2sc(C(F)(F)P(=O)(O)O)c(Br)c2c1` [Compound 14], the IC50 in test [1] is 2.69 µM; in test [2], 4.12 µM.

In the case of `CC1(C)CC(COc2cc(C(N)=O)cc3c(Br)c(C(F)(F)P(=O)(O)O)sc23)C1` [Compound 292], the values for the IC50 in test [1] and in test [2] were 0.049 µM and 0.0786 µM, respectively.

For `N#Cc1c(C(F)(F)P(=O)(O)O)sc2ccc(C(=O)NCc3c[nH]nn3)cc12` [Compound 173], the half-maximal inhibitory concentration (IC50) turned out to be 0.739 µM in test [1] and 0.578 µM in test [2].

`NC(=O)c1cc(OCCCc2cncs2)c2sc(C(F)(F)P(=O)(O)O)c(Br)c2c1` [Compound 269]: the results for the half-maximal inhibitory concentration (IC50) in test [1] and in test [2] were 0.0371 µM and 0.0264 µM, respectively.

With `O=C(NCc1c[nH]nn1)c1cc(O)c2sc(C(F)(F)P(=O)(O)O)c(Br)c2c1` [Compound 167], the values for the IC50 in test [1] and in test [2] were 3.56 µM and 3.07 µM, respectively.

Take `O=C(NC(c1ccccc1)c1cccnc1)c1ccc2sc(C(F)(F)P(=O)(O)O)c(Br)c2c1` (stereo not drawn) [Compound 65]: the 50% inhibitory concentration (IC50) in test [1] amounted to 4.3 µM; in test [2], 4.85 µM.

On to `N#Cc1ccc2c(c1)CC(NC(=O)c1ccc3sc(C(F)(F)P(=O)(O)O)c(Br)c3c1)C2` (stereo not drawn) [Compound 83], for which the concentration for half-maximal inhibition (IC50) in test [1] amounted to 1.63 µM; in test [2], 2.01 µM.

As to `CCc1noc(CNC(=O)c2ccc3sc(C(F)(F)P(=O)(O)O)c(Br)c3c2)n1` [Compound 196], the 50% inhibitory concentration (IC50) in test [1] came out at 2.1 µM; in test [2], 3.54 µM.

Take `CS(=O)(=O)CCCOc1cc(C(=O)NCCC#N)cc2c(Br)c(C(F)(F)P(=O)(O)O)sc12` [Compound 330]: the IC50 worked out at 0.0092 µM in test [1] and 0.0104 µM in test [2].

Turning to `CS(=O)(=O)N1CC2(CC(NC(=O)c3ccc4sc(C(F)(F)P(=O)(O)O)c(Br)c4c3)C2)C1` [Compound 48], the IC50 is 5.53 µM in test [1] and 7.15 µM in test [2].

For `NC(=O)c1cc(OCc2ccccc2F)c2sc(C(F)(F)P(=O)(O)O)c(Br)c2c1` [Compound 242], the IC50 is 0.0796 µM in test [1] and 0.06 µM in test [2].

Consider `C[C@@H](NC(=O)c1ccc2sc(C(F)(F)P(=O)(O)O)c(C#N)c2c1)c1cccnn1` [Compound 186], for which the IC50 in test [1] is 1.38 µM; in test [2], 0.648 µM.

With `NC(=O)c1cc(OCc2ccc(C3(C(F)(F)F)CC3)cc2)c2sc(C(F)(F)P(=O)(O)O)c(Br)c2c1` [Compound 388], the half-inhibitory concentration (IC50) in test [1] is 0.132 µM; in test [2], 0.0593 µM.

Consider `O=P(O)(O)C(F)(F)c1sc2c(OCC3CC3(F)F)cc(-c3nc[nH]n3)cc2c1Br` (stereo not drawn) [Compound 442], for which the IC50 in test [1] is 0.005 µM; in test [2], 0.00556 µM.

With `O=C(NCc1cccnn1)c1cc(F)c2sc(C(F)(F)P(=O)(O)O)c(Br)c2c1` [Compound 164], the IC50 in test [1] turned out to be 0.361 µM; in test [2] it was 0.435 µM.

`O=P(O)(O)C(F)(F)c1sc2c(OCCCC(F)(F)F)cc(-c3c[nH]cn3)cc2c1Br` [Compound 416, ((3-bromo-5-(1H-imidazol-4-yl)-7-(4,4,4-trifluorobutoxy)benzo[b]thiophen-2-yl)difluoromethyl)phosphonic acid]: the results for the IC50 in test [1] and in test [2] were 0.137 µM and 0.092 µM, respectively.

Regarding `CC(NC(=O)c1ccc2sc(C(F)(F)P(=O)(O)O)c(Br)c2c1)c1cncnc1` (stereo not drawn) [Compound 138], the results for the IC50 in test [1] and in test [2] were 2.08 µM and 2.91 µM, respectively.

Turning to `COc1cccc(CNC(=O)c2ccc3sc(C(F)(F)P(=O)(O)O)c(Br)c3c2)c1OC(F)F` [Compound 95], the figures for the 50% inhibitory concentration (IC50) in test [1] and in test [2] were 3.9 µM and 4.78 µM, respectively.

In the case of `CNC(=O)c1cc(OCCCS(C)(=O)=O)c2sc(C(F)(F)P(=O)(O)O)c(C#N)c2c1` [Compound 422], the IC50 turned out to be 0.0117 µM in test [1] and 0.00784 µM in test [2].

Take `O=C(NCc1cc(C2CC2)on1)c1ccc2sc(C(F)(F)P(=O)(O)O)c(Br)c2c1` [Compound 189]: the concentration for half-maximal inhibition (IC50) in test [1] was 0.99 µM; in test [2] it was 1.32 µM.

For the compound `O=C(NCc1ncn[nH]1)c1ccc2sc(C(F)(F)P(=O)(O)O)c(Br)c2c1` [Compound 139], the concentration for half-maximal inhibition (IC50) was 1.3 µM in test [1] and 1.49 µM in test [2].

In the case of `CN1CCCC(NC(=O)c2ccc3sc(C(F)(F)P(=O)(O)O)c(Br)c3c2)C1` (stereo not drawn) [Compound 58], the results for the IC50 in test [1] and in test [2] were 9.05 µM and 7.9 µM, respectively.

As for `CC(C)(O)CCCNc1cccc2c(Br)c(C(F)(F)P(=O)(O)O)sc12` [Compound 224], the concentration for half-maximal inhibition (IC50) in test [1] was 2.39 µM; in test [2], 1.61 µM.

For `N#CCCNC(=O)c1cc(OCCCC(F)(F)F)c2sc(C(F)(F)P(=O)(O)O)c(Br)c2c1` [Compound 329], the figures for the IC50 in test [1] and in test [2] were 0.0181 µM and 0.0141 µM, respectively.

Turning to `N#Cc1c(C(F)(F)P(=O)(O)O)sc2ccc(C(=O)NCc3ncn[nH]3)cc12` [Compound 171], the half-inhibitory concentration (IC50) in test [1] stood at 2.18 µM; in test [2] it was 1.47 µM.
